Data set [1] addresses Prolyl Oligopeptidase (hPREP) (Homo sapiens (Human), UniProt P48147). Briefly: hPREP inhibition assay. The format is biochemical. Conditions: hPREP 0.6 nM, Z-Gly-Pro-amino-methylcoumarin 50 μM; read-out: PREP IC50. On the procedure: Compounds were tested in a biochemical inhibition assay using Prolyl endopeptidase, Prolyl Oligopeptidase (hPREP) enzyme at 0.6 nM FAC (R&D Systems, 4308-SE) and the substrate Z-Gly-Pro-amino-methylcoumarin (Bachem, I-1145) at 50 μM FAC. 384 Low volume black plates (Greiner #784076) were used. […] 4 μL, 100 μM substrate solution (25 mM Tris HCl, 250 mM NaCl, 0.01% Triton X-100, 5 mM Glutathione, pH 7.5) was added to each well. Plates were centrifuged at 1000 rpm and incubated for 20 min at rt in dark. […] Data were analyzed in Genedata Screener®.

Data set [2] is described as follows: Metabolic stability in human liver microsomes (HLM). It is filed as in vitro ADME. On the procedure: Metabolic stability in HLM was measured as described in J Comput Aided Mol Des 2015, 29, 795.
In general terms: Liver microsomes are a subcellular fraction often used to study metabolism.

In data set [3] the test system is Human Hepatocytes (hHep). Briefly: Metabolic stability in human hepatocytes (hHep). The format is in vitro ADME. On the procedure: Metabolic stability in human hepatocytes was measured as described in Xenobiotica 2010, 40, 637.
A short description of data set [4]: Kinetic solubility. The format is physicochemical. Conditions: kinetic from dmso stock. On the procedure:
Kinetic solubility was measured as described in Comput Aided Mol Des 2015, 29, 795.

Data set [5] deals with human Fibroblast activation protein alpha (hFAP) (Homo sapiens (Human), UniProt Q12884). The data set can be described thus: hFAP inhibition assay (tight binders). It is filed as biochemical. Conditions: tight-binder format, Ala-Pro-AMC 20 μM, 2.5 h incubation; n = 1 or geometric mean (n = 5-10). On the procedure:
Data were analyzed in Genedata Screener®.

Data set [6] has as its system Rat Hepatocytes (rHep). Briefly: Metabolic stability in rat hepatocytes (rHep). The format is in vitro ADME. On the procedure: Metabolic stability in rat hepatocytes was measured as described in J Comput Aided Mol Des 2015, 29, 795.
Data set [7] addresses hFAP (Homo sapiens (Human), UniProt Q12884).
Protocol: Compounds were tested in a biochemical inhibition assay using hFAP enzyme at 0.24 nM FAC (Proteros, 38-760 (PR-0071)) and the substrate Ala-Pro-AMC (ARI-3144) at 20 μM FAC. 384 low volume black plates (Greiner #784076) were used. 4 μL, 0.48 nM enzyme solution (100 mM Tris HCl, 100 mM NaCl, 0.05% Chaps, pH 7.4) was added to 40 nL compounds (in DMSO) at 10 CR, 3-fold dilution series from 50 μM FAC. Plates were incubated for 15 min at rt in dark. 4 μL, 40 μM substrate solution (100 mM Tris HCl, 100 mM NaCl, 0.05% Chaps, pH 7.4) was added to each well. Plates were centrifuged at 1000 rpm and incubated for 30 min at rt in dark. The plates were read on a PHERAstar® reader with excitation 340 nm and emission 460 nm. Data were analyzed in Genedata Screener®. IC50 values were determined by plotting % inhibition versus log compound concentration and using a one site dose response model.
Data set [8] deals with hFAP (M39-A757) (Homo sapiens (Human), UniProt Q12884).
Chain of hFAP (M39-A757) (Q12884 39-757): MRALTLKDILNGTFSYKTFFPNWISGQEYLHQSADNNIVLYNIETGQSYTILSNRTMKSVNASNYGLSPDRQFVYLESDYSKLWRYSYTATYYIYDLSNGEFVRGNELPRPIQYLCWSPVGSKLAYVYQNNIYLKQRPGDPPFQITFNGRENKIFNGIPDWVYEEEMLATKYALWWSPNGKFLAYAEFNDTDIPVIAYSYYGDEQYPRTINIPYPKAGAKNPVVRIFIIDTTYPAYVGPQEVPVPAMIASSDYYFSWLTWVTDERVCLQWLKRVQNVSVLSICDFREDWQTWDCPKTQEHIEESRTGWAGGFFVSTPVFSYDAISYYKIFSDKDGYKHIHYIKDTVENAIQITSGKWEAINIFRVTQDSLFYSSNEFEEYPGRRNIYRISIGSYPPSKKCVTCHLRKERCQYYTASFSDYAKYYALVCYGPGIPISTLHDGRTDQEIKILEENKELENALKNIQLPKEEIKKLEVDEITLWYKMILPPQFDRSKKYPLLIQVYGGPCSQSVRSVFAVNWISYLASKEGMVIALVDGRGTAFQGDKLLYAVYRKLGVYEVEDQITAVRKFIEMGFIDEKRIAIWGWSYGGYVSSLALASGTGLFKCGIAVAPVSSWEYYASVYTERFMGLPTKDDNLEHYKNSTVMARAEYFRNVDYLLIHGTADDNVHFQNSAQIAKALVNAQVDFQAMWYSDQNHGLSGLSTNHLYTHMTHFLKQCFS
Protocol: Compounds were tested in a direct binding assay using 8K surface plasmon resonance biosensor (GE Healthcare) at 20° C. Immobilization of hFAP (M39-A757) on a CMD200M sensor chip (Xantec) was performed using standard amine coupling procedure in immobilization buffer (10 mM HEPES, 150 mM NaCl, 0.05% Tween20, pH 7.4). The surface was washed with 10 mM NaOH, 1M NaCl before being activated with EDC/NHS (GE Healthcare), followed by immobilization of hFAP (in 10 mM Acetate pH 5.0). Finally, the surface was deactivated by ethanolamine. Immobilization levels of hFAP were around 4000-6000 RU. The reference spot was treated as described, omitting the injection of hFAP. Compound concentration series were injected over the immobilized protein in increasing concentrations (2-500 nM) using single cycle kinetics in running buffer (20 mM TRIS, 150 mM NaCl, 0.05% Tween20, 1% DMSO, pH 7.4). Interaction models were fitted globally to the experimental traces, enabling determination of kon, koff and Kd.

Here are results for 15 compounds from patent US20230406840A1, “N-(2-(3-CYANO-2-AZABICYCLO[3.1.0]HEXAN-2-YL)-2-OXOETHYL)QUINOLINE-4-CARBOXAMIDES” (AstraZeneca AB, priority 2022, published 2023).

The IC50 is the concentration that inhibits the measured activity by half. A word on the microsomal CLint: it is a measure of how fast metabolising enzymes remove a compound, apart from limits set by blood flow. The low end stands for greater metabolic stability, the high end for faster metabolism. For orientation: solubility means the dissolved amount per volume that the medium holds. Low readings indicate little dissolved substance, high ones much dissolved substance. In general, Kd refers to a measure of binding affinity in units of concentration.

Values after ≈ are worked out from the molar mass of the structure shown. A value given as a limit tells only on which side of the number the result lay.

Chain of human Fibroblast activation protein alpha (hFAP) (Q12884 38-760): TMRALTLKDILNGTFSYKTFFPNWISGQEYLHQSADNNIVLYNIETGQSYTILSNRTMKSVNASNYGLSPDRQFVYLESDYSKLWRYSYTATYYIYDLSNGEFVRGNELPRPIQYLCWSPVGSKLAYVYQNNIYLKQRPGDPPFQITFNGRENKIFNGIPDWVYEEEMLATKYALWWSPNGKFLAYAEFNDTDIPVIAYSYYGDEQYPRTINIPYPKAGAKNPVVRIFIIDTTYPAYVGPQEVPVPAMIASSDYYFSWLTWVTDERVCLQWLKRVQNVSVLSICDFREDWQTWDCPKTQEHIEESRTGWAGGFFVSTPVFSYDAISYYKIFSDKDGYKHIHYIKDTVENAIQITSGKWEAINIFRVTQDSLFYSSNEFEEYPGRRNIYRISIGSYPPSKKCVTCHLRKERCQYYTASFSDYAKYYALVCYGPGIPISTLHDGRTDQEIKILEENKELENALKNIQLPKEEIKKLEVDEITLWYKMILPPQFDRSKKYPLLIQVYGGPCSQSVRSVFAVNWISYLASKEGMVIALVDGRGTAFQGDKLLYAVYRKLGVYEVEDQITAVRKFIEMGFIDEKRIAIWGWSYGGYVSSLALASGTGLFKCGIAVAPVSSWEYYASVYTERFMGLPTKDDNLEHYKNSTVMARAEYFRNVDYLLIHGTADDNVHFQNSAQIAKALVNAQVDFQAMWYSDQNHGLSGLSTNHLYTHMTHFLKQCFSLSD
Chain of hFAP (Q12884 38-760): as above
Chain of Prolyl Oligopeptidase (hPREP) (P48147 whole entry): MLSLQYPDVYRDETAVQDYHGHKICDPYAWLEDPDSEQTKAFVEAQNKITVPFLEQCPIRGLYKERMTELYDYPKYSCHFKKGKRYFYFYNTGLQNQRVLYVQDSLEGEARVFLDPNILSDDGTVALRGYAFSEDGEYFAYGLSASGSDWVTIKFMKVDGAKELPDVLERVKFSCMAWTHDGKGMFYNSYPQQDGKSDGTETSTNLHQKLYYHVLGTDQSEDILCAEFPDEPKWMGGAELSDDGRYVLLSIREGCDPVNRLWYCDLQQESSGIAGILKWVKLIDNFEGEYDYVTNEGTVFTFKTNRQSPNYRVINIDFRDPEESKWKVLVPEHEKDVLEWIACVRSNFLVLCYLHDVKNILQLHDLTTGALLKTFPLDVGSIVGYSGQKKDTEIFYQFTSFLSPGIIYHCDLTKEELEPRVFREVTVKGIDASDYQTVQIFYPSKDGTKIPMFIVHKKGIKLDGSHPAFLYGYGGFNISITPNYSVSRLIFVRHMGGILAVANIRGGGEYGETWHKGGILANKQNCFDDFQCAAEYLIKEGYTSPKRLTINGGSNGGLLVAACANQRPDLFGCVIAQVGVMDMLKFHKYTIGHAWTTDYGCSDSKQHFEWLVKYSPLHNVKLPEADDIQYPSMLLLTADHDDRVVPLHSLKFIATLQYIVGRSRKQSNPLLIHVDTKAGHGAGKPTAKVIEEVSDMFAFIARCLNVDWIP

In the case of `Cc1cc(C(=O)NCC(=O)N2[C@H](C#N)C[C@@H]3C[C@@H]32)c2ccc(F)cc2n1` [Example 8, N-(2-((1S,3S,5S)-3-Cyano-2-azabicyclo[3.1.0]hexan-2-yl)-2-oxoethyl)-7-fluoro-2-methylquinoline-4-carboxamide], the IC50 in data set [1] is 44000 nM; in data set [5], 20 nM; in data set [7], 71 nM. This compound also registered a microsomal CLint in data set [2] below 3 µL/min/mg. Besides, the “hHep CLint” value in data set [3] was below 1 μL/min/1E6. In addition, the concentration in solution in data set [4] (solubility) came to 890 µM (≈ 314 µg/mL). For the same compound, in data set [6], the “rHeps CLint” value was 1.3 μL/min/1E6.

With `N#C[C@@H]1C[C@@H]2C[C@@H]2N1C(=O)CNC(=O)c1ccnc2ccc(CF)cc12` [Example 11, N-(2-((1S,3S,5S)-3-Cyano-2-azabicyclo[3.1.0]hexan-2-yl)-2-oxoethyl)-6-(fluoromethyl)quinoline-4-carboxamide], the IC50 in data set [1] was above 50000 nM; in data set [5], 0.4 nM; in data set [7], 2.2 nM. Further, in data set [2], the microsomal CLint is below 3 µL/min/mg. Besides, the concentration in solution in data set [4] (solubility) came to 970 µM (≈ 342 µg/mL). Also, the affinity in data set [8], expressed as Kd, was 17 nM. Further, in data set [6], the “rHeps CLint” value is recorded as 5.3 μL/min/1E6.

Regarding `CC(C)(F)c1ccc2nccc(C(=O)NCC(=O)N3[C@H](C#N)C[C@@H]4C[C@@H]43)c2c1` [Example 12, N-(2-((1S,3S,5S)-3-Cyano-2-azabicyclo[3.1.0]hexan-2-yl)-2-oxoethyl)-6-(2-fluoropropan-2-yl)quinoline-4-carboxamide], the IC50 is above 50000 nM in data set [1], 0.75 nM in data set [5] and 3.8 nM in data set [7]. In data set [2], the microsomal CLint was 100 µL/min/mg. In data set [4], this compound yielded a solubility of 300 µM (≈ 114 µg/mL). The dissociation constant (Kd) in data set [8] worked out at 13 nM. In data set [6], the “rHeps CLint” value is 20 μL/min/1E6.

As to `CC(C)(O)c1ccc2nccc(C(=O)NCC(=O)N3[C@H](C#N)C[C@@H]4C[C@@H]43)c2c1` [Example 13, N-(2-((1S,3S,5S)-3-Cyano-2-azabicyclo[3.1.0]hexan-2-yl)-2-oxoethyl)-6-(2-hydroxypropan-2-yl)quinoline-4-carboxamide], the IC50 is above 50000 nM in data set [1], 0.86 nM in data set [5] and 3.8 nM in data set [7]. Besides, the microsomal CLint in data set [2] was below 3 µL/min/mg. The “hHep CLint” value in data set [3] is on record as below 1 μL/min/1E6. Also, the solubility in data set [4] is above 1000 µM. Further, the “rHeps CLint” value in data set [6] amounted to 2 μL/min/1E6.

Regarding `COC(C)c1ccc2nccc(C(=O)NCC(=O)N3[C@H](C#N)C[C@@H]4C[C@@H]43)c2c1` (stereo partly drawn) [Example 15, N-(2-((1S,3S,5S)-3-Cyano-2-azabicyclo[3.1.0]hexan-2-yl)-2-oxoethyl)-6-(1-methoxyethyl)quinoline-4-carboxamide], the IC50 in data set [1] is above 50000 nM; in data set [5], 1.1 nM; in data set [7], 16 nM. In addition, the intrinsic metabolic clearance (microsomal CLint) in data set [2] came to 30 µL/min/mg. In data set [3], the “hHep CLint” value came out at 3.3 μL/min/1E6. This compound also had a solubility in data set [4] above 1000 µM. Further, the “rHeps CLint” value in data set [6] turned out to be 9.4 μL/min/1E6.

Regarding `COC(C)(C)c1ccc2nccc(C(=O)NCC(=O)N3[C@H](C#N)C[C@@H]4C[C@@H]43)c2c1` [Example 16, N-(2-((1S,3S,5S)-3-Cyano-2-azabicyclo[3.1.0]hexan-2-yl)-2-oxoethyl)-6-(2-methoxypropan-2-yl)quinoline-4-carboxamide], the IC50 was above 50000 nM in data set [1], 0.81 nM in data set [5] and 4.2 nM in data set [7]. Moreover, the microsomal CLint in data set [2] came to 72 µL/min/mg. The compound further registered a solubility in data set [4] above 1000 µM. In data set [8], this compound came in with a Kd of 20 nM. In addition, in data set [6], the “rHeps CLint” value is on record as 21 μL/min/1E6.

For `N#C[C@@H]1C[C@@H]2C[C@@H]2N1C(=O)CNC(=O)c1ccnc2ccc(COC(F)(F)F)cc12` [Example 17, N-(2-((1S,3S,5S)-3-Cyano-2-azabicyclo[3.1.0]hexan-2-yl)-2-oxoethyl)-6-((trifluoromethoxy)methyl)quinoline-4-carboxamide], the IC50 in data set [1] was above 50000 nM; in data set [5], 0.38 nM; in data set [7] it was 1.7 nM. Besides, in data set [2], the microsomal CLint is 110 µL/min/mg. The same compound showed a solubility in data set [4] of 340 µM (≈ 142 µg/mL). Also, the Kd in data set [8] is 8.5 nM. Further, the “rHeps CLint” value in data set [6] is given as 21 μL/min/1E6.

In the case of `CC(C)(F)c1ccc2c(C(=O)NCC(=O)N3[C@H](C#N)C[C@@H]4C[C@@H]43)ccnc2c1` [Example 21, N-(2-((1S,3S,5S)-3-Cyano-2-azabicyclo[3.1.0]hexan-2-yl)-2-oxoethyl)-7-(2-fluoropropan-2-yl)quinoline-4-carboxamide], the results for the IC50 in data set [1], in data set [5] and in data set [7] were above 50000 nM, 0.97 nM and 2.8 nM, respectively. Besides, in data set [2], the microsomal CLint was 13 µL/min/mg. Further, the concentration in solution in data set [4] (solubility) was 56 µM (≈ 21.3 µg/mL). This compound came in with a Kd in data set [8] of 10 nM. Besides, in data set [6], the “rHeps CLint” value came to 70 μL/min/1E6.

`N#C[C@@H]1C[C@@H]2C[C@@H]2N1C(=O)CNC(=O)c1ccnc2cc(C(F)F)ccc12` [Example 22, N-(2-((1S,3S,5S)-3-Cyano-2-azabicyclo[3.1.0]hexan-2-yl)-2-oxoethyl)-7-(difluoromethyl)quinoline-4-carboxamide]: the IC50 in data set [1] is above 50000 nM; in data set [5] it was 0.51 nM; in data set [7], 1.5 nM. In data set [2], the microsomal CLint was below 5.8 µL/min/mg. In addition, in data set [3], the “hHep CLint” value is listed as below 1 μL/min/1E6. In addition, the solubility in data set [4] is above 1000 µM. In addition, the “rHeps CLint” value in data set [6] is given as 2.9 μL/min/1E6.

Consider `N#C[C@@H]1C[C@@H]2C[C@@H]2N1C(=O)CNC(=O)c1ccnc2cc(CF)ccc12` [Example 24, N-(2-((1S,3S,5S)-3-Cyano-2-azabicyclo[3.1.0]hexan-2-yl)-2-oxoethyl)-7-(fluoromethyl)quinoline-4-carboxamide], for which the IC50 in data set [1] is above 45000 nM; in data set [5], 0.3 nM; in data set [7], 1.2 nM. This compound also came in with a microsomal CLint in data set [2] below 3 µL/min/mg. This compound also came in with a solubility in data set [4] above 1000 µM. In data set [8], this compound showed a Kd of 8.2 nM. Further, the “rHeps CLint” value in data set [6] came to 2.7 μL/min/1E6.

Turning to `COC(C)c1ccc2c(C(=O)NCC(=O)N3[C@H](C#N)C[C@@H]4C[C@@H]43)ccnc2c1` (stereo partly drawn) [Example 27, N-(2-((1S,3S,5S)-3-Cyano-2-azabicyclo[3.1.0]hexan-2-yl)-2-oxoethyl)-7-(1-methoxyethyl)quinoline-4-carboxamide], the IC50 in data set [1] was above 50000 nM; in data set [5] it was 2 nM; in data set [7] it was 6 nM. The same compound gave a microsomal CLint in data set [2] of 21 µL/min/mg. In data set [3], the “hHep CLint” value is on record as 3.1 μL/min/1E6. Besides, in data set [4], the solubility is above 1000 µM. Moreover, in data set [6], the “rHeps CLint” value was found to be 7.2 μL/min/1E6.

Consider `COC(C)(C)c1ccc2c(C(=O)NCC(=O)N3[C@H](C#N)C[C@@H]4C[C@@H]43)ccnc2c1` [Example 28, N-(2-((1S,3S,5S)-3-Cyano-2-azabicyclo[3.1.0]hexan-2-yl)-2-oxoethyl)-7-(2-methoxypropan-2-yl)quinoline-4-carboxamide], for which the IC50 in data set [1] is above 50000 nM; in data set [5] it was 1.3 nM; in data set [7], 4.6 nM. Besides, the microsomal CLint in data set [2] worked out at 36 µL/min/mg. The same compound gave a solubility in data set [4] above 1000 µM. This compound also gave a Kd in data set [8] of 7.8 nM. Further, in data set [6], the “rHeps CLint” value was 5.2 μL/min/1E6.

On to `N#C[C@@H]1C[C@@H]2C[C@@H]2N1C(=O)CNC(=O)c1ccnc2cc(COC(F)(F)F)ccc12` [Example 29, N-(2-((1S,3S,5S)-3-Cyano-2-azabicyclo[3.1.0]hexan-2-yl)-2-oxoethyl)-7-((trifluoromethoxy)methyl)quinoline-4-carboxamide], for which the IC50 in data set [1] was above 50000 nM; in data set [5] it was 0.3 nM; in data set [7], 1.3 nM. In data set [2], this compound showed a microsomal CLint of 8.9 µL/min/mg. In data set [4], this compound gave a solubility of 23 µM (≈ 9.62 µg/mL). This compound came in with a Kd in data set [8] of 11 nM. Further, the “rHeps CLint” value in data set [6] is listed as 81 μL/min/1E6.

For `CC(C)Oc1ccc2nccc(C(=O)NCC(=O)N3[C@H](C#N)C[C@@H]4C[C@@H]43)c2c1` [Example 34, N-(2-((1S,3S,5S)-3-Cyano-2-azabicyclo[3.1.0]hexan-2-yl)-2-oxoethyl)-6-isopropoxyquinoline-4-carboxamide], the values for the IC50 in data set [1], in data set [5] and in data set [7] were above 50000 nM, 1.2 nM and 4.1 nM, respectively. The same compound came in with an intrinsic clearance (microsomal CLint) in data set [2] of 160 µL/min/mg. In data set [3], the “hHep CLint” value is 15 μL/min/1E6. The compound further registered a solubility in data set [4] of 850 µM (≈ 322 µg/mL). Moreover, the “rHeps CLint” value in data set [6] is listed as 20 μL/min/1E6.

`N#C[C@@H]1C[C@@H]2C[C@@H]2N1C(=O)CNC(=O)c1ccnc2ccc(OCC3CC3)cc12` [Example 35, N-(2-((1S,3S,5S)-3-Cyano-2-azabicyclo[3.1.0]hexan-2-yl)-2-oxoethyl)-6-(cyclopropylmethoxy)quinoline-4-carboxamide]: the IC50 is above 50000 nM in data set [1], 0.097 nM in data set [5] and 0.64 nM in data set [7]. This compound showed a microsomal CLint in data set [2] of 90 µL/min/mg. In data set [3], the “hHep CLint” value is listed as 12 μL/min/1E6. The compound also showed a solubility in data set [4] of 590 µM (≈ 230 µg/mL). The “rHeps CLint” value in data set [6] is given as 16 μL/min/1E6.
